# According to patent publication US9296734B2 (AMGEN INC., priority 2013, dated 2016):
# Molecular target: Cathepsin D (Cat D) (Homo sapiens (Human), UniProt P07339)
# Experiment: In vitro enzymatic Cathepsin D (Cat D) FRET assay
# Format: biochemical
# Details: average IC50, cathepsin D enzyme assay; read-out: CatD IC50
# Experimental: In Vitro Enzymatic Cathepsin D (Cat D) FRET (Fluorescence Resonance Energy Transfer) Assay
# Recombinant Cat D was expressed in CHO cells. The assay buffer for CathepsinD is 0.05 M citrate pH 3.5, 10% DMSO final, 5 mM CHAPS. […] The assays are effectively started by the addition of different FRET substrates (20 nM for Cat D) and the combination is incubated for one hour. The FRET assay is terminated with by addition of Tris buffer, which raises the pH to neutrality, and the fluorescence is determined. The FRET substrate is a peptide with commercially available fluorophore and quencher, on opposite sides of the BACE cleavage site. […] Proteolytic cleavage of the FRET substrate releases quenching of fluorescence (Cat D excitation 500 nm and emission 580 nm).
# In addition, the cathepsin D and cathepsin E assays are described in PCT publication WO2011069934.
# Sequence of Cathepsin D (Cat D) (P07339 65-412, species assumed): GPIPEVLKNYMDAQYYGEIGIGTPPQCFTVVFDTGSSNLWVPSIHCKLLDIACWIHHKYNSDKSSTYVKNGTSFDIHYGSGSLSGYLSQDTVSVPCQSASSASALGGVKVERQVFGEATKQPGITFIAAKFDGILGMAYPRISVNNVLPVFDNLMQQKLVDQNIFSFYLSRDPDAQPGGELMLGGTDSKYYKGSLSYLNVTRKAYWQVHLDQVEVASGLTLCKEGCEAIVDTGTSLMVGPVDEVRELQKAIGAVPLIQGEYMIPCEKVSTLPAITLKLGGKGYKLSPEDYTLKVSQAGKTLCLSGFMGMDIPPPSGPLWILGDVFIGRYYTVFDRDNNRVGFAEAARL
row,Structure (SMILES),IC50
1,"COc1cccnc1Nc1ccc(F)c([C@]2(CF)C[C@@H](C(F)(F)F)OC(N)=N2)c1 [Example 15, (4S,6S)-4-(2-fluoro-5-((3-methoxypyridin-2-yl)-amino)phenyl)-4-(fluoromethyl)-6-(trifluoromethyl)-5,6-dihydro-4H-1,3-oxazin-2-amine]",1080 µM
2,"NC1=N[C@](CF)(c2cc(Nc3ncc(F)c4cc(Cl)cnc34)ccc2F)C[C@@H](C(F)(F)F)O1 [Example 19, (4S,6S)-4-(5-((3-chloro-5-fluoro-1,7-naphthyridin-8-yl)amino)-2-fluorophenyl)-4-(fluoromethyl)-6-(trifluoromethyl)-5,6-dihydro-4H-1,3-oxazin-2-amine]",> 133 µM
3,"C#CCOC1CCN(C(=O)Nc2ccc(F)c([C@]3(C)C[C@@H](C(F)(F)F)OC(N)=N3)c2)CC1 [Example 120, N-(3-((4S,6S)-2-amino-4-methyl-6-(trifluoromethyl)-5,6-dihydro-4H-1,3-oxazin-4-yl)-4-fluorophenyl)-4-(prop-2-yn-1-yloxy)piperidine-1-carboxamide]",> 400 µM
4,"NC1=N[C@](CF)(c2cc(Nc3ncnc4sc(C(F)F)nc34)ccc2F)C[C@@H](C(F)(F)F)O1 [Example 21, (4S,6S)-4-(5-((2-(difluoromethyl)thiazolo[5,4-d]pyrimidin-7-yl)amino)-2-fluorophenyl)-4-(fluoromethyl)-6-(trifluoromethyl)-5,6-dihydro-4H-1,3-oxazin-2-amine]",> 400 µM
5,"C[C@@]1(c2cc(NC(=O)N3CCC(C(F)F)CC3)ccc2F)C[C@@H](C(F)(F)F)OC(N)=N1 [Example 122, N-(3-((4S,6S)-2-amino-4-methyl-6-(trifluoromethyl)-5,6-dihydro-4H-1,3-oxazin-4-yl)-4-fluorophenyl)-4-(difluoromethyl)piperidine-1-carboxamide]",> 14.8 µM

# The remaining lines, values ahead:
row,IC50,Structure (SMILES)
1,> 400 µM,COc1cnc2c(Nc3cc(F)c(F)c([C@]4(C)C[C@@H](C(F)(F)F)OC(N)=N4)c3)nccc2c1 [Example 179]
2,519 µM,"COc1cnc2c(Nc3cc(F)c(F)c([C@]4(C)C[C@@H](C(F)(F)F)OC(N)=N4)c3)nccc2n1 [Example 178, (4S,6S)-4-(2,3-difluoro-5-((2-methoxypyrido[3,4-b]pyrazin-5-yl)amino)phenyl)-4-methyl-6-(trifluoromethyl)-5,6-dihydro-4H-1,3-oxazin-2-amine]"
3,> 400 µM,"NC1=N[C@](CF)(c2cc(NC(=O)c3ccc(C#CC4CC4)cn3)cc(F)c2F)C[C@@H](C(F)(F)F)O1 [Example 158, N-(3-((4S,6S)-2-amino-4-(fluoromethyl)-6-(trifluoromethyl)-5,6-dihydro-4H-1,3-oxazin-4-yl)-4,5-difluorophenyl)-5-(cyclopropylethynyl)picolinamide]"
4,2380 µM,"NC1=N[C@](CF)(c2cc(NC(=O)c3nn(C(F)F)cc3Cl)ccc2F)C[C@@H](C(F)(F)F)O1 [Example 36, N-(3-((4S,6S)-2-amino-4-(fluoromethyl)-6-(trifluoromethyl)-5,6-dihydro-4H-1,3-oxazin-4-yl)-4-fluorophenyl)-4-chloro-1-(difluoromethyl)-1H-pyrazole-3-carboxamide]"

# Same assay, conditions: average IC50; read-out: CatD IC50
row,Structure (SMILES),IC50
1,"N#Cc1cnc2c(Nc3ccc(F)c([C@]4(CF)C[C@@H](C(F)(F)F)OC(N)=N4)c3)ncc(F)c2c1 [Example 10, 8-((3-((4S,6S)-2-amino-4-(fluoromethyl)-6-(trifluoromethyl)-5,6-dihydro-4H-1,3-oxazin-4-yl)-4-fluorophenyl)amino)-5-fluoro-1,7-naphthyridine-3-carbonitrile]",> 44 µM
2,"CNC(=O)c1ccnc(Oc2ccc(F)c([C@]3(CF)C[C@@H](C(F)(F)F)OC(N)=N3)c2)c1 [Example 96, 2-(3-((4S,6S)-2-amino-4-(fluoromethyl)-6-(trifluoromethyl)-5,6-dihydro-4H-1,3-oxazin-4-yl)-4-fluorophenoxy)-N-methylisonicotinamide]",> 400 µM
3,"N#Cc1ccc(C(=O)Nc2ccc(F)c([C@]3(CF)C[C@@H](C(F)(F)F)OC(N)=N3)c2)nc1 [Example 59, N-(3-((4S,6S)-2-amino-4-(fluoromethyl)-6-(trifluoromethyl)-5,6-dihydro-4H-1,3-oxazin-4-yl)-4-fluorophenyl)-5-cyanopicolinamide]",> 400 µM
4,"NC1=N[C@](CF)(c2cc(Oc3ncccc3Cl)ccc2F)C[C@@H](C(F)(F)F)O1 [Example 97, (4S,6S)-4-(5-((3-chloropyridin-2-yl)oxy)-2-fluorophenyl)-4-(fluoromethyl)-6-(trifluoromethyl)-5,6-dihydro-4H-1,3-oxazin-2-amine]",1010 µM
5,"NC1=N[C@](CF)(c2cc(Oc3cc(C(F)(F)F)ccn3)ccc2F)C[C@@H](C(F)(F)F)O1 [Example 99, (4S,6S)-4-(2-Fluoro-5-((4-(trifluoromethyl)pyridin-2-yl)oxy)phenyl)-4-(fluoromethyl)-6-(trifluoromethyl)-5,6-dihydro-4H-1,3-oxazin-2-amine]",> 400 µM

# Now from value to compound:
row,IC50,Structure (SMILES)
1,> 400 µM,"NC1=N[C@](CF)(c2cc(NC(=O)c3ncc(Br)cc3Cl)ccc2F)C[C@@H](C(F)(F)F)O1 [Example 56, N-(3-((4S,6S)-2-amino-4-(fluoromethyl)-6-(trifluoromethyl)-5,6-dihydro-4H-1,3-oxazin-4-yl)-4-fluorophenyl)-5-bromo-3-chloro-2-pyridinecarboxamide]"
2,> 400 µM,"COc1cnc(C(=O)Nc2ccc(F)c([C@]3(CF)C[C@@H](C(F)(F)F)OC(N)=N3)c2)c(C)n1 [Example 33, N-(3-((4S,6S)-2-amino-4-(fluoromethyl)-6-(trifluoromethyl)-5,6-dihydro-4H-1,3-oxazin-4-yl)-4-fluorophenyl)-5-methoxy-3-methylpyrazine-2-carboxamide]"
3,> 400 µM,"COc1ccc(C(=O)Nc2ccc(F)c([C@]3(CF)C[C@@H](C(F)(F)F)OC(N)=N3)c2)nc1 [Example 49, N-(3-((4S,6S)-2-amino-4-(fluoromethyl)-6-(trifluoromethyl)-5,6-dihydro-4H-1,3-oxazin-4-yl)-4-fluorophenyl)-5-methoxypicolinamide]"
4,900 µM,"Cc1cc(C#N)cnc1C(=O)Nc1ccc(F)c([C@]2(C)C[C@@H](C(F)(F)F)OC(N)=N2)n1 [Example 84, N-(6-((4S,6S)-2-amino-4-methyl-6-(trifluoromethyl)-5,6-dihydro-4H-1,3-oxazin-4-yl)-5-fluoropyridin-2-yl)-5-cyano-3-methylpicolinamide]"
5,> 400 µM,"COc1cnc(C(=O)Nc2cnc(F)c([C@]3(C)C[C@@H](C(F)(F)F)OC(N)=N3)c2)c(Cl)c1 [Example 69, N-(5-((4S,6S)-2-amino-4-methyl-6-(trifluoromethyl)-5,6-dihydro-4H-1,3-oxazin-4-yl)-6-fluoropyridin-3-yl)-3-chloro-5-methoxypicolinamide]"

# Same assay, conditions: average; read-out: CatD IC50
row,Structure (SMILES),IC50
1,"NC1=N[C@](CF)(c2cc(NC(=S)c3ccc(Cl)cn3)ccc2F)C[C@@H](C(F)(F)F)O1 [Example 91, N-(3-((4S,6S)-2-amino-4-(fluoromethyl)-6-(trifluoromethyl)-5,6-dihydro-4H-1,3-oxazin-4-yl)-4-fluorophenyl)-5-chloropyridine-2-carbothioamide]",805 µM
2,"C#CCOc1cnc(C(=O)Nc2cnc(F)c([C@]3(C)C[C@@H](C(F)(F)F)OC(N)=N3)c2)cn1 [Example 73, N-(5-((4S,6S)-2-amino-4-methyl-6-(trifluoromethyl)-5,6-dihydro-4H-1,3-oxazin-4-yl)-6-fluoropyridin-3-yl)-5-(prop-2-yn-1-yloxy)pyrazine-2-carboxamide]",1690 µM

# Second part, the compound after the results:
row,IC50,Structure (SMILES)
1,> 400 µM,"Cc1cc(OC(F)F)cnc1C(=O)Nc1cc(F)c(F)c([C@]2(C)C[C@@H](C(F)(F)F)OC(N)=N2)c1 [Example 174, N-(3-((4S,6S)-2-amino-4-methyl-6-(trifluoromethyl)-5,6-dihydro-4H-1,3-oxazin-4-yl)-4,5-difluorophenyl)-5-(difluoromethoxy)-3-methylpicolinamide]"
2,833 µM,"Cc1cc(NC(=O)c2ccc(F)cn2)cc([C@]2(CF)C[C@@H](C(F)(F)F)OC(N)=N2)c1F [Example 223, N-(3-((4S,6S)-2-amino-4-(fluoromethyl)-6-(trifluoromethyl)-5,6-dihydro-4H-1,3-oxazin-4-yl)-4-fluoro-5-methylphenyl)-5-fluoropicolinamide]"
3,1120 µM,"COc1ccc(C(=O)Nc2cc(C)c(F)c([C@]3(CF)C[C@@H](C(F)(F)F)OC(N)=N3)c2)nc1 [Example 229, N-(3-((4S,6S)-2-amino-4-(fluoromethyl)-6-(trifluoromethyl)-5,6-dihydro-4H-1,3-oxazin-4-yl)-4-fluoro-5-methylphenyl)-5-methoxypicolinamide]"
4,997 µM,"C[C@@]1(c2cc(NC(=O)c3ccc(C(F)F)cn3)cc(F)c2F)C[C@@H](C(F)(F)F)OC(N)=N1 [Example 200, N-(3-((4S,6S)-2-amino-4-methyl-6-(trifluoromethyl)-5,6-dihydro-4H-1,3-oxazin-4-yl)-4,5-difluorophenyl)-5-(difluoromethyl)picolinamide]"
5,416 µM,"Cc1cc(C#N)cnc1C(=O)Nc1cc(Cl)c(F)c([C@]2(C)C[C@@H](C(F)(F)F)OC(N)=N2)c1 [Example 210, N-(3-((4S,6S)-2-amino-4-methyl-6-(trifluoromethyl)-5,6-dihydro-4H-1,3-oxazin-4-yl)-5-chloro-4-fluorophenyl)-5-cyano-3-methylpicolinamide]"
6,> 400 µM,"Cc1cc(OCC(F)(F)F)cnc1C(=O)Nc1cc(F)c(F)c([C@]2(C)C[C@@H](C(F)(F)F)OC(N)=N2)c1 [Example 194, N-(3-((4S,6S)-2-amino-4-methyl-6-(trifluoromethyl)-5,6-dihydro-4H-1,3-oxazin-4-yl)-4,5-difluorophenyl)-3-methyl-5-(2,2,2-trifluoroethoxy)picolinamide]"
